According to the supplement of paper PMC10307832:

Tests used:
Assay in all cases: relative viability (nuclei count vs DMSO), 5 days (fraction); higher = more cells survive
[1] = compound: C[As](C)SC[C@H](NC(=O)CC[C@H](N)C(=O)O)C(=O)NCC(=O)O [Darinaparsin] + O=C(CCCCCCC(=O)Nc1ccccc1)NO [Vorinostat] (partner 1 µM)
Method in brief: (§1)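 Each reported value is a median over duplicate plates. It expresses relative viability: treated-well nuclei count divided by vehicle-well nuclei count. Lung cancer cell lines in 1536-well plates were dosed by pin tool a day after seeding, alone with one drug or with a fixed anchor-drug dose plus five library-drug doses (not always all listed) in √10 steps, and nuclei were counted after 5 days.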

[2] = compound: C[As](C)SC[C@H](NC(=O)CC[C@H](N)C(=O)O)C(=O)NCC(=O)O [Darinaparsin] + Nc1ncn([C@H]2C[C@H](O)[C@@H](CO)O2)c(=O)n1 [Decitabine] (partner 2 µM)
Method in brief: as §1

AZ628 + Navitoclax = compound: CC1=C(C=C(C=C1)NC(=O)C2=CC(=CC=C2)C(C)(C)C#N)NC3=CC4=C(C=C3)N=CN(C4=O)C [AZ628] + CC1(C)CCC(c2ccc(Cl)cc2)=C(CN2CCN(c3ccc(C(=O)NS(=O)(=O)c4ccc(N[C@H](CCN5CCOCC5)CSc5ccccc5)c(S(=O)(=O)C(F)(F)F)c4)cc3)CC2)C1 [Navitoclax] (partner 0.5 µM)
Method in brief: as §1

Darinaparsin + AZD7762 = compound: C[As](C)SC[C@H](NC(=O)CC[C@H](N)C(=O)O)C(=O)NCC(=O)O [Darinaparsin] + NC(=O)Nc1cc(-c2cccc(F)c2)sc1C(=O)N[C@H]1CCCNC1 [AZD7762] (partner 0.2 µM)
Method in brief: as §1

Cell Line	relative viability ([1]; first compound 0.08 µM)	relative viability ([1]; first compound 0.8 µM)	relative viability ([1]; first compound 8 µM)	relative viability ([2]; first compound 0.08 µM)	relative viability ([2]; first compound 0.8 µM)	relative viability ([2]; first compound 8 µM)	relative viability (AZ628 + Navitoclax; first compound 0.08 µM)	relative viability (AZ628 + Navitoclax; first compound 0.253 µM)	relative viability (AZ628 + Navitoclax; first compound 0.8 µM)	relative viability (AZ628 + Navitoclax; first compound 2.53 µM)	relative viability (AZ628 + Navitoclax; first compound 8 µM)	relative viability (Darinaparsin + AZD7762; first compound 0.08 µM)	relative viability (Darinaparsin + AZD7762; first compound 0.8 µM)	relative viability (Darinaparsin + AZD7762; first compound 8 µM)	relative viability ([1]; first compound 2.53 µM)	relative viability ([2]; first compound 2.53 µM)	relative viability (Darinaparsin + AZD7762; first compound 2.53 µM)
NCI-H1793	0.653	0.731	0.911	0.461	0.483	0.485	0.533	0.511	0.53	0.384	0.285	0.581	0.553	0.536	–	–	–
HARA	0.582	0.532	0.621	0.6	–	0.603	1.2	1.12	1.13	1.14	0.591	0.417	–	0.371	0.575	0.51	0.335
NCI-H2347	0.477	0.541	0.718	0.667	0.632	0.697	0.519	0.67	0.712	0.638	0.368	0.668	0.583	0.871	0.679	0.733	0.734
NCI-H2126	0.77	0.687	0.708	0.597	0.578	0.635	0.894	0.886	0.866	0.794	0.624	1.14	1.03	1.14	0.743	0.575	0.917
HOP-62	0.765	0.654	0.819	0.233	0.27	0.23	1.09	1.17	1.02	1.1	0.729	0.669	0.518	0.782	0.522	0.235	0.497
NCI-H2085	0.73	0.732	0.764	0.532	0.474	0.527	1.19	1.12	1.08	1.04	0.861	0.91	0.934	1.17	0.827	0.601	0.892
NCI-H1944	0.595	0.542	0.682	0.437	0.466	0.442	1.14	1.04	1	0.949	0.921	0.469	0.518	0.427	0.61	0.452	0.527
EMC-BAC-2	0.554	0.417	0.42	0.916	0.907	0.969	1.26	1.09	1.07	1.06	1.05	1.18	1.04	1.26	0.546	1.18	1.28
A-427	0.898	0.811	0.893	0.569	0.517	0.493	0.875	0.826	0.726	0.671	0.31	0.696	0.681	0.589	0.951	0.581	0.747
EPLC-272H	0.324	0.42	0.4	0.377	0.37	0.329	1.02	1.04	1.24	1.1	0.709	0.206	0.176	0.215	0.422	0.353	0.117
HCC-827	0.874	0.818	0.963	0.284	0.316	0.363	0.986	1	0.954	1.02	0.811	0.181	0.211	0.188	0.775	0.32	0.188
NCI-H322M	1.08	0.865	0.899	0.704	0.686	0.724	1.34	1.14	1.19	1.24	0.914	0.585	0.42	0.518	0.768	0.577	0.488
NCI-H1755	0.791	0.606	1.05	0.748	0.801	0.784	0.998	1	1.05	1.02	0.956	0.595	0.428	0.475	0.817	0.714	0.735
LU99A	0.477	0.47	0.455	0.887	0.863	1.06	0.856	0.859	0.865	0.895	0.296	0.455	0.273	0.383	0.524	0.925	0.328
HCC-44	1.24	1.12	1.09	1.05	0.966	0.977	0.966	1	0.996	1.06	0.874	1.02	1.03	1.05	1.05	0.924	1.08
NCI-H647	0.608	0.751	0.572	0.444	0.39	0.476	1.29	1.1	1.21	1.19	1.02	0.81	0.572	0.534	0.539	0.346	0.375
NCI-H1734	0.934	0.752	0.746	0.558	0.483	0.529	0.864	0.718	0.818	0.791	0.502	0.72	0.529	0.664	0.773	0.504	0.549
NCI-H1993	0.765	0.855	0.827	0.626	0.584	0.586	1	0.872	0.859	0.688	0.709	0.965	0.723	0.84	0.697	0.608	0.628
NCI-H23	0.62	0.485	0.716	0.341	0.292	0.311	0.878	0.868	0.61	0.783	0.559	0.226	0.229	0.247	0.663	0.35	0.23
